Assays:
[1] = system: Peptoniphilus asaccharolyticus; assay: Antibacterial activity against beta-lactamase producing Peptoniphilus asaccharolyticus by CLSI agar dilution method; assay type: functional
[2] = system: Prevotella melaninogenica; assay: Antibacterial activity against Prevotella melaninogenica assessed as susceptible isolates by CLSI agar dilution method; assay type: functional
Prevotella bivia [3] = assay: Antibacterial activity against Prevotella bivia by CLSI agar dilution method; assay type: functional
Fusobacterium nucleatum [4] = assay: Antibacterial activity against Fusobacterium nucleatum assessed as susceptible isolates by CLSI agar dilution method; assay type: functional
Bacteroides uniformis [5] = assay: Antibacterial activity against beta-lactamase producing Bacteroides uniformis assessed as susceptible isolates by CLSI agar dilution method; assay type: functional
Finegoldia magna [6] = assay: Antibacterial activity against beta-lactamase producing Finegoldia magna by CLSI agar dilution method; assay type: functional
Prevotella intermedia [7] = assay: Antibacterial activity against Prevotella intermedia assessed as resistant isolates by CLSI agar dilution method; assay type: functional
Bacteroides fragilis [8] = assay: Antibacterial activity against Bacteroides fragilis assessed as resistant isolates by CLSI agar dilution method; assay type: functional
Phocaeicola vulgatus [9] = assay: Antibacterial activity against beta-lactamase producing Bacteroides vulgatus assessed as susceptible isolates by CLSI agar dilution method; assay type: functional
Bacteroides fragilis [10] = assay: Antibacterial activity against Bacteroides fragilis assessed as susceptible isolates by CLSI agar dilution method; assay type: functional
[11] = system: Clostridium paraputrificum; assay: Antibacterial activity against beta-lactamase producing Clostridium paraputrificum assessed as resistant isolates by CLSI agar dilution method; assay type: functional
Parvimonas micra [12] = assay: Antibacterial activity against beta-lactamase producing Micromonas micros assessed as resistant isolates by CLSI agar dilution method; assay type: functional
Parvimonas micra [13] = assay: Antibacterial activity against beta-lactamase producing Micromonas micros by CLSI agar dilution method; assay type: functional
Veillonella parvula = assay: Antibacterial activity against Veillonella parvula by CLSI agar dilution method; assay type: functional
Prevotella intermedia [14] = assay: Antibacterial activity against Prevotella intermedia assessed as susceptible isolates by CLSI agar dilution method; assay type: functional
[15] = system: Clostridium paraputrificum; assay: Antibacterial activity against beta-lactamase producing Clostridium paraputrificum by CLSI agar dilution method; assay type: functional
[16] = system: Fusobacterium necrophorum; assay: Antibacterial activity against Fusobacterium necrophorum assessed as susceptible isolates by CLSI agar dilution method; assay type: functional
Fusobacterium varium [17] = assay: Antibacterial activity against Fusobacterium varium assessed as susceptible isolates by CLSI agar dilution method; assay type: functional
Prevotella buccae [18] = assay: Antibacterial activity against Prevotella buccae assessed as resistant isolates by CLSI agar dilution method; assay type: functional, Segatella buccae
Bacteroides uniformis [19] = assay: Antibacterial activity against beta-lactamase producing Bacteroides uniformis assessed as resistant isolates by CLSI agar dilution method; assay type: functional
Fusobacterium varium [20] = assay: Antibacterial activity against Fusobacterium varium assessed as resistant isolates by CLSI agar dilution method; assay type: functional
[21] = system: Peptostreptococcus anaerobius; assay: Antibacterial activity against beta-lactamase producing Peptostreptococcus anaerobius assessed as resistant isolates by CLSI agar dilution method; assay type: functional
Phocaeicola vulgatus [22] = assay: Antibacterial activity against beta-lactamase producing Bacteroides vulgatus by CLSI agar dilution method; assay type: functional
Prevotella intermedia [23] = assay: Antibacterial activity against Prevotella intermedia by CLSI agar dilution method; assay type: functional
Bacteroides caccae [24] = assay: Antibacterial activity against beta-lactamase producing Bacteroides caccae assessed as susceptible isolates by CLSI agar dilution method; assay type: functional
[25] = system: Bacteroides thetaiotaomicron; assay: Antibacterial activity against beta-lactamase producing Bacteroides thetaiotaomicron assessed as susceptible isolates by CLSI agar dilution method; assay type: functional
Prevotella buccae [26] = assay: Antibacterial activity against Prevotella buccae by CLSI agar dilution method; assay type: functional; conditions: Segatella buccae
Prevotella bivia [27] = assay: Antibacterial activity against Prevotella bivia assessed as resistant isolates by CLSI agar dilution method; assay type: functional
Prevotella bivia [28] = assay: Antibacterial activity against Prevotella bivia assessed as susceptible isolates by CLSI agar dilution method; assay type: functional
Phocaeicola vulgatus [29] = assay: Antibacterial activity against beta-lactamase producing Bacteroides vulgatus assessed as resistant isolates by CLSI agar dilution method; assay type: functional
Bacteroides uniformis [30] = assay: Antibacterial activity against beta-lactamase producing Bacteroides uniformis by CLSI agar dilution method; assay type: functional
Clostridium tertium [31] = assay: Antibacterial activity against beta-lactamase producing Clostridium tertium by CLSI agar dilution method; assay type: functional
Clostridium tertium [32] = assay: Antibacterial activity against beta-lactamase producing Clostridium tertium assessed as resistant isolates by CLSI agar dilution method; assay type: functional
[33] = system: Prevotella melaninogenica; assay: Antibacterial activity against Prevotella melaninogenica assessed as resistant isolates by CLSI agar dilution method; assay type: functional
Clostridium septicum [34] = assay: Antibacterial activity against beta-lactamase producing Clostridium septicum assessed as susceptible isolates by CLSI agar dilution method; assay type: functional
[35] = system: Bacteroides thetaiotaomicron; assay: Antibacterial activity against beta-lactamase producing Bacteroides thetaiotaomicron by CLSI agar dilution method; assay type: functional
Bacteroides caccae [36] = assay: Antibacterial activity against beta-lactamase producing Bacteroides caccae by CLSI agar dilution method; assay type: functional
[37] = system: Fusobacterium necrophorum; assay: Antibacterial activity against Fusobacterium necrophorum assessed as resistant isolates by CLSI agar dilution method; assay type: functional
[38] = system: Peptoniphilus asaccharolyticus; assay: Antibacterial activity against beta-lactamase producing Peptoniphilus asaccharolyticus assessed as susceptible isolates by CLSI agar dilution method; assay type: functional
Fusobacterium varium [39] = assay: Antibacterial activity against Fusobacterium varium by CLSI agar dilution method; assay type: functional
Clostridium septicum [40] = assay: Antibacterial activity against beta-lactamase producing Clostridium septicum assessed as resistant isolates by CLSI agar dilution method; assay type: functional
Prevotella buccae [41] = assay: Antibacterial activity against Prevotella buccae assessed as susceptible isolates by CLSI agar dilution method; assay type: functional, Segatella buccae
Finegoldia magna [42] = assay: Antibacterial activity against beta-lactamase producing Finegoldia magna assessed as resistant isolates by CLSI agar dilution method; assay type: functional
Bacteroides caccae [43] = assay: Antibacterial activity against beta-lactamase producing Bacteroides caccae assessed as resistant isolates by CLSI agar dilution method; assay type: functional
Parvimonas micra [44] = assay: Antibacterial activity against beta-lactamase producing Micromonas micros assessed as susceptible isolates by CLSI agar dilution method; assay type: functional
[45] = system: Peptoniphilus asaccharolyticus; assay: Antibacterial activity against beta-lactamase producing Peptoniphilus asaccharolyticus assessed as resistant isolates by CLSI agar dilution method; assay type: functional
Clostridium perfringens = assay: microbe, parasite or virus in culture; assay type: functional
Fusobacterium nucleatum [46] = assay: Antibacterial activity against Fusobacterium nucleatum assessed as resistant isolates by CLSI agar dilution method; assay type: functional
Clostridium septicum [47] = assay: Antibacterial activity against beta-lactamase producing Clostridium septicum by CLSI agar dilution method; assay type: functional
Fusobacterium mortiferum [48] = assay: Antibacterial activity against Fusobacterium mortiferum assessed as susceptible isolates by CLSI agar dilution method; assay type: functional
[49] = system: Clostridium paraputrificum; assay: Antibacterial activity against beta-lactamase producing Clostridium paraputrificum assessed as susceptible isolates by CLSI agar dilution method; assay type: functional
Fusobacterium nucleatum [50] = assay: Antibacterial activity against Fusobacterium nucleatum by CLSI agar dilution method; assay type: functional
Bacteroides fragilis [51] = assay: Antibacterial activity against Bacteroides fragilis by CLSI agar dilution method; assay type: functional
Clostridium tertium [52] = assay: Antibacterial activity against beta-lactamase producing Clostridium tertium assessed as susceptible isolates by CLSI agar dilution method; assay type: functional
Finegoldia magna [53] = assay: Antibacterial activity against beta-lactamase producing Finegoldia magna assessed as susceptible isolates by CLSI agar dilution method; assay type: functional
Fusobacterium mortiferum [54] = assay: Antibacterial activity against Fusobacterium mortiferum by CLSI agar dilution method; assay type: functional
[55] = system: Fusobacterium necrophorum; assay: Antibacterial activity against Fusobacterium necrophorum by CLSI agar dilution method; assay type: functional
[56] = system: Bacteroides thetaiotaomicron; assay: Antibacterial activity against beta-lactamase producing Bacteroides thetaiotaomicron assessed as resistant isolates by CLSI agar dilution method; assay type: functional
[57] = system: Prevotella melaninogenica; assay: Antibacterial activity against Prevotella melaninogenica by CLSI agar dilution method; assay type: functional
[58] = system: Peptostreptococcus anaerobius; assay: Antibacterial activity against beta-lactamase producing Peptostreptococcus anaerobius assessed as susceptible isolates by CLSI agar dilution method; assay type: functional
Fusobacterium mortiferum [59] = assay: Antibacterial activity against Fusobacterium mortiferum assessed as resistant isolates by CLSI agar dilution method; assay type: functional
[60] = system: Peptostreptococcus anaerobius; assay: Antibacterial activity against beta-lactamase producing Peptostreptococcus anaerobius by CLSI agar dilution method; assay type: functional

C[C@@H](O)[C@H]1C(=O)N2C(C(=O)O)=C(S[C@@H]3CN[C@H](CNS(N)(=O)=O)C3)[C@H](C)[C@H]12 [DORIPENEM]
2 µg/mL: MIC90 [15] | MIC90 (Phocaeicola vulgatus [22]) | MIC90 (Bacteroides uniformis [30]) | MIC90 (Clostridium tertium [31]) | MIC90 [35] | MIC90 (Bacteroides caccae [36]) | MIC90 (Clostridium perfringens) | MIC90 (Clostridium septicum [47])
0.25 µg/mL: MIC50 (Prevotella bivia [3]) | MIC50 (Prevotella intermedia [23]) | MIC50 (Prevotella buccae [26]) | MIC90 (Fusobacterium varium [39]) | MIC90 (Fusobacterium nucleatum [50]) | MIC90 (Fusobacterium mortiferum [54]) | MIC90 [55] | MIC50 [57]
1 µg/mL: MIC50 (Phocaeicola vulgatus [22]) | MIC50 (Bacteroides uniformis [30]) | MIC50 (Bacteroides caccae [36])
100%: Activity [2] | Activity (Fusobacterium nucleatum [4]) | Activity (Prevotella intermedia [14]) | Activity [16] | Activity (Fusobacterium varium [17]) | Activity (Prevotella bivia [28]) | Activity (Clostridium septicum [34]) | Activity [38] | Activity (Prevotella buccae [41]) | Activity (Parvimonas micra [44]) | Activity (Fusobacterium mortiferum [48]) | Activity [49] | Activity (Clostridium tertium [52]) | Activity (Finegoldia magna [53]) | Activity [58]
7%: Activity (Bacteroides fragilis [8])
0.12 µg/mL: MIC50 (Fusobacterium varium [39]) | MIC50 (Fusobacterium nucleatum [50]) | MIC50 (Fusobacterium mortiferum [54]) | MIC50 [55]
8 µg/mL: MIC90 (Bacteroides fragilis [51])
97%: Activity [25]
0%: Activity (Prevotella intermedia [7]) | Activity [11] | Activity (Parvimonas micra [12]) | Activity (Prevotella buccae [18]) | Activity (Fusobacterium varium [20]) | Activity [21] | Activity (Prevotella bivia [27]) | Activity (Clostridium tertium [32]) | Activity [33] | Activity [37] | Activity (Clostridium septicum [40]) | Activity (Finegoldia magna [42]) | Activity [45] | Activity (Fusobacterium nucleatum [46]) | Activity [56] | Activity (Fusobacterium mortiferum [59])
92%: Activity (Bacteroides uniformis [5]) | Activity (Phocaeicola vulgatus [9]) | Activity (Bacteroides caccae [24])
4%: Activity (Bacteroides uniformis [19]) | Activity (Phocaeicola vulgatus [29]) | Activity (Bacteroides caccae [43])
0.03 µg/mL: MIC [15] | MIC50 [15] | MIC (Clostridium tertium [31]) | MIC50 (Clostridium tertium [31]) | MIC (Clostridium perfringens) | MIC50 (Clostridium perfringens) | MIC (Clostridium septicum [47]) | MIC50 (Clostridium septicum [47])
0.5 µg/mL: MIC90 [1] | MIC90 (Prevotella bivia [3]) | MIC90 (Finegoldia magna [6]) | MIC90 (Parvimonas micra [13]) | MIC90 (Prevotella intermedia [23]) | MIC90 (Prevotella buccae [26]) | MIC [35] | MIC50 [35] | MIC50 (Bacteroides fragilis [51]) | MIC90 [57] | MIC90 [60]
88%: Activity (Bacteroides fragilis [10])
0.06 µg/mL: MIC50 [1] | MIC50 (Finegoldia magna [6]) | MIC50 (Parvimonas micra [13]) | MIC (Veillonella parvula) | MIC50 [60]

Source: ChEMBL document CHEMBL1671627, “Increasing trends in antimicrobial resistance among clinically important anaerobes and Bacteroides fragilis isolates causing nosocomial infections: emerging resistance to carbapenems” (2008)
